Assay results as given in publication PMC4912453 (Nature chemical biology, 2016).
Substitutions are numbered along the chain they refer to.

Legend:
Type in all cases: binding
[1] = target: T1, DNA polymerase α catalytic subunit (POLA1) (Homo sapiens, UniProt P09884); assay: CD437 fluorescence intensity enhancement and anisotropy titration
T1 sequence (P09884 335-1257): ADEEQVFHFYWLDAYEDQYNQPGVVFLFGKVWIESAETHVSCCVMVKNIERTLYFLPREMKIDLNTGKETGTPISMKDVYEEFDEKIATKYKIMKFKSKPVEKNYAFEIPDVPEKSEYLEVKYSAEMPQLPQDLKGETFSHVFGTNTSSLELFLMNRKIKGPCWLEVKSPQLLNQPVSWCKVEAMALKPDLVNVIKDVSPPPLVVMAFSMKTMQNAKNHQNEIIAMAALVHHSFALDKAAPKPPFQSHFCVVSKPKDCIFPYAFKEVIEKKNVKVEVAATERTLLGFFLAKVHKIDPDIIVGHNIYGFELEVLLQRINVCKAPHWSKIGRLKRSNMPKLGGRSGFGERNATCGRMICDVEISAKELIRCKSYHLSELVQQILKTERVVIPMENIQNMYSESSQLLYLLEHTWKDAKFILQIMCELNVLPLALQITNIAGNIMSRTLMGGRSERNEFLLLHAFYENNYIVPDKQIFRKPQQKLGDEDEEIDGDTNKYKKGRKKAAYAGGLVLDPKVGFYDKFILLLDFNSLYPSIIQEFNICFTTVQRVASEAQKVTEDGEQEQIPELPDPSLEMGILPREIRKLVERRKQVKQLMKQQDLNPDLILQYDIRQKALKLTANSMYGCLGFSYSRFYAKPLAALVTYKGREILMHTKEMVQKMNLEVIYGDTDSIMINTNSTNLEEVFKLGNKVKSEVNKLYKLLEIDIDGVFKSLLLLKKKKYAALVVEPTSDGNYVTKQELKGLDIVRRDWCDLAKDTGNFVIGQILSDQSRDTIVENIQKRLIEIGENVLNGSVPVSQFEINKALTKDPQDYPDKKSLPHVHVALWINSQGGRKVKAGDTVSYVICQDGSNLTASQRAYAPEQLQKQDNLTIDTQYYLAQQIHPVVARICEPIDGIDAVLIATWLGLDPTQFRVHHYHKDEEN

[2] = target: T2, DNA polymerase α catalytic subunit (POLA1) (Homo sapiens, UniProt P09884, L764S); assay: CD437 fluorescence intensity enhancement titration
T2 sequence (P09884 335-1257 L764S): T1 sequence (P09884 335-1257) with L430S

[3] = target: T3, DNA polymerase α catalytic subunit (POLA1) (Homo sapiens, UniProt P09884, L700S); assay: CD437 fluorescence intensity enhancement titration
T3 sequence (P09884 335-1257 L700S): T1 sequence (P09884 335-1257) with L366S

What does the source list for O=C(O)c1ccc2cc(-c3ccc(O)c(C45CC6CC(CC(C6)C4)C5)c3)ccc2c1 [CD437, 6-[3-(1-adamantyl)-4-hydroxyphenyl]-2-naphthalene carboxylic acid]?
Kd [1]: 67 ± 22 nM; Kd [2]: 94 ± 18 nM; Kd [3]: < 5 nM
